EPA's ToxRefDB 2

Tests used:
rat [1] = settings: Subchronic oral toxicity in rodents, other, Feed, dose end: 13 week, group: systemic, systemic / in life observation / body weight / body weight gain + systemic / pathology microscopic / liver / infiltration cellular + …
dog [2] = settings: Subchronic oral toxicity in nonrodent, beagle, Feed, dose end: 13 week, group: systemic, systemic / in life observation / body weight / body weight gain + systemic / in life observation / food consumption / food consumption
rat [3] = settings: Prenatal developmental toxicity study, other, Oral, Gavage/Intubation, dose end: 15 GD
rat [4] = settings: Sub-acute repeat dose toxicity, sprague dawley, Oral, Feed, dose end: 28 day, group: systemic
rat [5] = settings: Prenatal developmental toxicity study, other, Oral, Gavage/Intubation, dose end: 15 GD; remark: listed apart in the source
rat [6] = settings: Multigenerational reproductive toxicity study, other, Oral, Gavage/Intubation, dose end: 2 generation
mouse [7] = settings: Carcinogenicity, cd1, Oral, Water, dose end: 104 week, group: systemic
rabbit [8] = settings: Prenatal developmental toxicity study, new zealand white, Oral, Gavage/Intubation, dose end: 19 GD
dog [9] = settings: Chronic toxicity, beagle, Oral, Gavage/Intubation, dose end: 52 week, group: systemic
rat [10] = settings: Chronic toxicity, other, Oral, Gavage/Intubation, dose end: 91 week, group: systemic
rabbit [11] = settings: Prenatal developmental toxicity study, new zealand white, Oral, Gavage/Intubation, dose end: 18 GD
rat [12] = settings: Prenatal developmental toxicity study; sprague dawley; Oral; Gavage/Intubation; dose end: 17 GD; group: maternal; systemic / in life observation / body weight / body weight + systemic / in life observation / body weight / body weight gain
rat [13] = settings: Prenatal developmental toxicity study; sprague dawley; Oral; Gavage/Intubation; dose end: 17 GD; group: maternal; systemic / in life observation / body weight / body weight + systemic / in life observation / body weight / body weight gain + systemic / in…
rat [14] = settings: Subchronic oral toxicity in rodents, sprague dawley, Feed, dose end: 13 week, group: systemic
mouse [15] = settings: Carcinogenicity; cd1; Oral; Feed; dose end: 78 week; group: systemic; systemic / in life observation / body weight / body weight gain + systemic / pathology microscopic / epididymis / concretion + systemic / …
rabbit [16] = settings: Prenatal developmental toxicity study; new zealand white; Oral; Gavage/Intubation; dose end: 19 GD; group: maternal; reproductive / reproductive performance / postimplantation loss / postimplantation loss + reproductive / reproductive performance / …
rat [17] = settings: Multigenerational reproductive toxicity study, other, Oral, Feed, dose end: 2 generation
rat [18] = settings: Combined chronic toxicity/carcinogenicity; sprague dawley; Oral; Feed; dose end: 104 week; group: systemic; systemic / in life observation / body weight / body weight
dog [19] = settings: Chronic toxicity; beagle; Oral; Capsule; dose end: 52 week; group: systemic; systemic / clinical chemistry / cholesterol / cholesterol + systemic / hematology / lymphocyte / lymphocyte + systemic / in life observation…
rat [20] = settings: Prenatal developmental toxicity study, other, Oral, Gavage/Intubation, dose end: 15 GD; remark: listed apart in the source
mouse [21] = settings: Carcinogenicity, cd1, Oral, Feed, dose end: 98 week, group: systemic
rabbit [22] = settings: Prenatal developmental toxicity study, new zealand white, Oral, Gavage/Intubation, dose end: 18 GD; remark: listed apart in the source
rat [23] = settings: Other (NonGuideline or Guideline Not Listed); sprague dawley; Oral; Gavage/Intubation; dose end: 7 day; group: cannot be grouped; systemic / clinical chemistry / alanine aminotransferase (alt/sgpt) / alanine aminotransferase (alt/sgpt) + systemic / clinical chemistry / …
[24] = group: developmental, developmental / developmental malformation / bone / unossified + developmental / developmental malformation / bone / full supernumerary + …
[25] = group: maternal, systemic / in life observation / body weight / body weight gain
[26] = group: maternal, systemic / in life observation / body weight / body weight gain + systemic / in life observation / body weight / body weight + systemic / in…
[27] = systemic / clinical chemistry / lactic acid dehydrogenase (ldh) / lactic acid dehydrogenase (ldh) + systemic / clinical chemistry / sorbitol…
[28] = group: developmental, developmental / developmental malformation / bone / bipartite ossification + developmental / developmental malformation / bone / thickened…
[29] = group: offspring, developmental / offspring survival late / viability index / viability index + systemic / in life observation / body weight / offspring (pup…
[30] = group: parental, systemic / in life observation / body weight / body weight + systemic / in life observation / body weight / body weight gain + systemic / in…
[31] = systemic / in life observation / body weight / body weight gain
[32] = systemic / in life observation / mortality / mortality + systemic / pathology microscopic / kidney / degeneration + systemic / pathology …
[33] = group: developmental, developmental / developmental malformation / brain / [other] + developmental / developmental malformation / general / crown-rump length + …
[34] = group: maternal, systemic / organ weight / uterus / nos
[35] = systemic / clinical chemistry / cholesterol / cholesterol + systemic / hematology / mean corpuscular (cell) volume (mcv) / mean corpuscular…
[36] = systemic / hematology / mean corpuscular hemoglobin (mch) / mean corpuscular hemoglobin (mch)
[37] = systemic / clinical chemistry / glucose / glucose
[38] = group: developmental, systemic / in life observation / body weight / fetal weight
[39] = group: maternal, systemic / in life observation / clinical signs / defecation + systemic / in life observation / mortality / mortality
[40] = group: maternal, systemic / in life observation / clinical signs / defecation + systemic / in life observation / mortality / mortality + systemic / in life …
[41] = systemic / clinical chemistry / alanine aminotransferase (alt/sgpt) / alanine aminotransferase (alt/sgpt) + systemic / clinical chemistry / …
[42] = group: offspring, systemic / in life observation / body weight / offspring (pup) weight
[43] = group: parental, systemic / in life observation / body weight / body weight gain + systemic / in life observation / food consumption / food consumption
[44] = group: developmental, developmental / developmental malformation / bone / bipartite ossification + developmental / developmental malformation / bone / cervical + …
[45] = group: maternal, reproductive / reproductive performance / postimplantation loss / postimplantation loss + reproductive / reproductive performance / …
[46] = systemic / pathology microscopic / liver / adenoma + systemic / pathology microscopic / liver / adenoma/carcinoma combined
[47] = group: developmental, developmental / developmental malformation / brain / misshapen cerebrum + developmental / developmental malformation / eye / malpositioned…

O=C(O)COc1ccc(Cl)cc1 [4-Chlorophenoxyacetic acid]
LEL (rat [1]): 517 mg/kg/day
LOAEL (rat [1]): 517 mg/kg/day
NEL (rat [1]): 132 mg/kg/day
NOAEL (rat [1]): 132 mg/kg/day
LEL (dog [2]): 17.4 mg/kg/day
LOAEL (dog [2]): 17.4 mg/kg/day
NEL (dog [2]): 4.05 mg/kg/day
NOAEL (dog [2]): 4.05 mg/kg/day
LOAEL (rat [3]; group: developmental, developmental / developmental malformation / bone / unossified): 300 mg/kg/day
LEL (rat [3]; group: developmental, developmental / developmental malformation / bone / unossified + developmental / developmental malformation / bone / full supernumerary): 300 mg/kg/day
NEL (rat [3]; [24]): 150 mg/kg/day
NOAEL (rat [3]; [24]): 150 mg/kg/day
LEL (rat [3]; [25]): 300 mg/kg/day
LOAEL (rat [3]; [25]): 300 mg/kg/day
NEL (rat [3]; [26]): 150 mg/kg/day
NOAEL (rat [3]; [26]): 150 mg/kg/day

ClC(Cl)(Cl)c1ccccc1 [Benzotrichloride]
LOAEL (rat [4]; [27]): > 25 mg/kg/day
NEL (rat [4]; [27]): 0.025 mg/kg/day
NOAEL (rat [4]; [27]): ≥ 25 mg/kg/day
LEL (rat [4]; systemic / clinical chemistry / sorbitol dehydrogenase / sorbitol dehydrogenase): 0.25 mg/kg/day

N#CN [Cyanamide]
LEL (rat [5]; [28]): 90 mg/kg/day
LOAEL (rat [5]; [28]): 90 mg/kg/day
NEL (rat [5]; [28]): 30 mg/kg/day
NOAEL (rat [5]; [28]): 30 mg/kg/day
LEL (rat [5]; [25]): 10 mg/kg/day
LOAEL (rat [5]; [25]): 10 mg/kg/day
NEL (rat [5]; [25]): < 10 mg/kg/day
NOAEL (rat [5]; [25]): < 10 mg/kg/day
LEL (rat [6]; [29]): 1.25 mg/kg/day
LOAEL (rat [6]; [29]): 1.25 mg/kg/day
NEL (rat [6]; [29]): < 1.25 mg/kg/day
NOAEL (rat [6]; [29]): < 1.25 mg/kg/day
LEL (rat [6]; [30]): 3.75 mg/kg/day
LOAEL (rat [6]; [30]): 3.75 mg/kg/day
NEL (rat [6]; [30]): 1.25 mg/kg/day
NOAEL (rat [6]; [30]): 1.25 mg/kg/day
LEL (mouse [7]; [31]): 5 mg/kg/day
NEL (mouse [7]; [31]): < 5 mg/kg/day
LOAEL (mouse [7]; [32]): 16.9 mg/kg/day
NOAEL (mouse [7]; [32]): 6.9 mg/kg/day
LOAEL (rabbit [8]; [33]): 36 mg/kg/day
NEL (rabbit [8]; [33]): 4 mg/kg/day
NOAEL (rabbit [8]; [33]): 12 mg/kg/day
LEL (rabbit [8]; group: developmental, developmental / developmental malformation / eye / retina fold): 12 mg/kg/day
LOAEL (rabbit [8]; [25]): 12 mg/kg/day
LEL (rabbit [8]; [34]): 4 mg/kg/day
NEL (rabbit [8]; [34]): < 4 mg/kg/day
NOAEL (rabbit [8]; group: maternal, systemic / organ weight / uterus / nos + systemic / in life observation / body weight / body weight gain + reproductive / reproductive …): 4 mg/kg/day
LOAEL (dog [9]; [35]): 2 mg/kg/day
NOAEL (dog [9]; [35]): 0.4 mg/kg/day
LEL (dog [9]; [36]): 0.4 mg/kg/day
NEL (dog [9]; [36]): < 0.4 mg/kg/day
LEL (rat [10]; [37]): 1 mg/kg/day
NEL (rat [10]; [37]): < 1 mg/kg/day
LOAEL (rat [10]; systemic / in life observation / body weight / body weight gain + systemic / pathology microscopic / thyroid gland / colloid content): 7.5 mg/kg/day
NOAEL (rat [10]; systemic / in life observation / body weight / body weight gain + systemic / pathology microscopic / thyroid gland / colloid content + …): 2.5 mg/kg/day

NCc1cccc(C2CCN(C(=O)c3ccc(C#Cc4ccccc4F)o3)CC2)c1 [AVE5638]
LEL (rabbit [11]; [38]): 225 mg/kg/day
LOAEL (rabbit [11]; [38]): 225 mg/kg/day
NEL (rabbit [11]; [38]): 100 mg/kg/day
NOAEL (rabbit [11]; [38]): 100 mg/kg/day
LEL (rabbit [11]; [39]): 100 mg/kg/day
LOAEL (rabbit [11]; [39]): 100 mg/kg/day
NEL (rabbit [11]; [40]): 25 mg/kg/day
NOAEL (rabbit [11]; [40]): 25 mg/kg/day
LEL (rat [12]): 40 mg/kg/day
LOAEL (rat [12]): 40 mg/kg/day
NEL (rat [12]): 5 mg/kg/day
NOAEL (rat [12]): 5 mg/kg/day
LEL (rat [13]): 40 mg/kg/day
LOAEL (rat [13]): 40 mg/kg/day
NEL (rat [13]): 5 mg/kg/day
NOAEL (rat [13]): 5 mg/kg/day

COC(=O)c1c(Cl)nn(C)c1S(=O)(=O)NC(=O)Nc1nc(OC)cc(OC)n1 [Halosulfuron-methyl]
LOAEL (rat [14]; [41]): 497 mg/kg/day
NEL (rat [14]; [41]): 28.8 mg/kg/day
NOAEL (rat [14]; [41]): 116 mg/kg/day
LEL (rat [14]; systemic / pathology microscopic / kidney / hemosiderosis): 116 mg/kg/day
LEL (mouse [15]): 972 mg/kg/day
LOAEL (mouse [15]): 972 mg/kg/day
NEL (mouse [15]): 410 mg/kg/day
NOAEL (mouse [15]): 410 mg/kg/day
LEL (rabbit [16]): 150 mg/kg/day
LOAEL (rabbit [16]): 150 mg/kg/day
NEL (rabbit [16]): 50 mg/kg/day
NOAEL (rabbit [16]): 50 mg/kg/day
LEL (rat [17]; [42]): 61 mg/kg/day
LOAEL (rat [17]; [42]): > 274 mg/kg/day
NEL (rat [17]; [42]): 7.4 mg/kg/day
NOAEL (rat [17]; [42]): ≥ 274 mg/kg/day
LEL (rat [17]; group: parental, systemic / in life observation / body weight / body weight): 69.7 mg/kg/day
NEL (rat [17]; group: parental, systemic / in life observation / body weight / body weight + systemic / in life observation / food consumption / food consumption): 8.9 mg/kg/day
LOAEL (rat [17]; [43]): 223 mg/kg/day
NOAEL (rat [17]; [43]): 50.4 mg/kg/day
LEL (rat [18]): 139 mg/kg/day
LOAEL (rat [18]): 139 mg/kg/day
NEL (rat [18]): 56.3 mg/kg/day
NOAEL (rat [18]): 56.3 mg/kg/day
LEL (dog [19]): 10 mg/kg/day
LOAEL (dog [19]): 10 mg/kg/day
NEL (dog [19]): 1 mg/kg/day
NOAEL (dog [19]): 1 mg/kg/day
LEL (rat [20]; [44]): 750 mg/kg/day
LOAEL (rat [20]; [44]): 750 mg/kg/day
NEL (rat [20]; [44]): 250 mg/kg/day
NOAEL (rat [20]; [44]): 250 mg/kg/day
LEL (rat [20]; [45]): 750 mg/kg/day
LOAEL (rat [20]; [45]): 750 mg/kg/day
NEL (rat [20]; [45]): 250 mg/kg/day
NOAEL (rat [20]; [45]): 250 mg/kg/day

CC(Oc1cccc(Cl)c1)C(=O)O (centres undefined) [Cloprop]
LEL (mouse [21]; [46]): 98 mg/kg/day
NEL (mouse [21]; [46]): < 98 mg/kg/day
LOAEL (mouse [21]; systemic / pathology microscopic / liver / hypertrophy): 402 mg/kg/day
NOAEL (mouse [21]; systemic / pathology microscopic / liver / hypertrophy + systemic / pathology microscopic / liver / adenoma + systemic / pathology …): 98 mg/kg/day
LEL (rabbit [22]; [47]): 200 mg/kg/day
LOAEL (rabbit [22]; [47]): 200 mg/kg/day
NEL (rabbit [22]; [47]): 100 mg/kg/day
NOAEL (rabbit [22]; [47]): 100 mg/kg/day
LEL (rabbit [22]; [25]): 200 mg/kg/day
LOAEL (rabbit [22]; [25]): 200 mg/kg/day
NEL (rabbit [22]; [25]): 100 mg/kg/day
NOAEL (rabbit [22]; [25]): 100 mg/kg/day

Fc1ccccc1[C@@H](F)COC1CCC(Nc2ncnc3[nH]ncc23)CC1 (some centres undefined) [MK-968]
LEL (rat [23]): 300 mg/kg/day
LOAEL (rat [23]): > 750 mg/kg/day
NEL (rat [23]): 10 mg/kg/day
NOAEL (rat [23]): ≥ 750 mg/kg/day
